Measured values reported in patent US20130137111A1, “DETECTION METHOD OF NOVEL RET FUSION” (Astellas Pharma Inc., priority 2010, published 2013).

Legend:
[1] = system: FLAG-KIF5B-RETv1S/NIH3T3 cells; test: Anchorage-independent cell growth inhibition in spheroid plate (CellTiter-Glo); type: cell-based; settings: Mus musculus, 120 h, final concentration 1.1 μM, 96-well spheroid plate, cultured 5 days, DMSO = 0%, medium only = 100%, read-out: growth inhibition rate (%)
Procedure: The measurement (colony method or the like) of anchorage-independent cell growth is known to be a system for examining the anticancer action (pharmacological effect) of a compound (“Clinical Oncology” 2nd edition, Japanese Journal of Cancer & Chemotherapy). As a method that measures the growth of non-adherent cells unlike the colony method, there is a method using a spheroid plate as described above.
In addition, a plate to which only a medium was added was prepared as a […]. […] As a […], DMSO as solvent of the compound was added thereto at the same concentration (0.1%) as the compound. Thereafter, the cells were cultured for 5 days at 37° C. in the presence of 5% CO2, and the cell counting reagent (CellTiter-Gio™ Luminescent Cell Viability Assay; Promega Corporation) was added thereto, followed by stirring for 20 minutes. Thereafter, the cells were measured using a luminescence measurement instrument (Envision; PerkinElmer Inc.). The values of positive control and negative control were regarded as 100% inhibition value and 0% inhibition value respectively to calculate the growth inhibition rate (%) of the respective compounds.

[2] = target: T1, KIF5B-RET fusion polypeptide v1S (Homo sapiens, UniProt P07949); test: cell-based; settings: NIH3T3, read-out: phosphorylation inhibition rate
T1 sequence (P07949 with tags, fused parts or gaps isoform P07949-2): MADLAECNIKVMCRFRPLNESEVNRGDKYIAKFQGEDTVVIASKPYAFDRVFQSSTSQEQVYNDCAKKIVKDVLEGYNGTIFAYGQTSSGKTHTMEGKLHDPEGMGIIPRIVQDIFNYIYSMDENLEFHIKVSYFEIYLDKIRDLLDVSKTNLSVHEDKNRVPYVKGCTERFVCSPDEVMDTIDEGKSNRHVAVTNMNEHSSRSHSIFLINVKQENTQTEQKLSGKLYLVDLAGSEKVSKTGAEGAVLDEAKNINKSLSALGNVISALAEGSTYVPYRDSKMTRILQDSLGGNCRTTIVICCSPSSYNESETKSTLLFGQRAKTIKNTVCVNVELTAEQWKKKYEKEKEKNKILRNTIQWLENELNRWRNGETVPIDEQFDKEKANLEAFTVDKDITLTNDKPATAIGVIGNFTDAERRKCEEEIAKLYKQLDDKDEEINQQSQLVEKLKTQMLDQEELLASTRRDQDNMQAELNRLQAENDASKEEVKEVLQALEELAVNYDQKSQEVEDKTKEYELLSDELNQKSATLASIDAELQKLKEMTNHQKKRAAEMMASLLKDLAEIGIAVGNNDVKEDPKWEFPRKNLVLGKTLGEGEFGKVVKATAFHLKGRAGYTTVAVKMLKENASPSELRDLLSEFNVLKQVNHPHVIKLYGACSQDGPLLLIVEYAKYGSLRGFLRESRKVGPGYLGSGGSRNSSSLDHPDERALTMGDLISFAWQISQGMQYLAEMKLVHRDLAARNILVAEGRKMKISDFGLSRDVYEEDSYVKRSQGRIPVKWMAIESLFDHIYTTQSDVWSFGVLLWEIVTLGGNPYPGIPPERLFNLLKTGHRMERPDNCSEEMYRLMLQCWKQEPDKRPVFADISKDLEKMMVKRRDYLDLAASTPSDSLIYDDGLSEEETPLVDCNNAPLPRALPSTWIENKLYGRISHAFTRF

CNC(=O)c1cc(Oc2ccc(NC(=O)Nc3ccc(Cl)c(C(F)(F)F)c3)cc2)ccn1 [Sorafenib]
inhibition at 1.1 µM [1]: 96%

CCN(CC)CCNC(=O)c1c(C)[nH]c(/C=C2\C(=O)Nc3ccc(F)cc32)c1C [Sunitinib]
inhibition at 1 µM [2]: 57% | inhibition at 1.1 µM [1]: 77%

COc1cc2c(Nc3ccc(Br)cc3F)ncnc2cc1OCC1CCN(C)CC1 [Vandetanib]
inhibition at 1.1 µM [1]: 83%
